The values that follow come from patent US10017580B2, “Humanized anti-Tn-MUC1 antibodies and their conjugates” (ADC THERAPEUTICS S.A., priority 2014, dated 2018).

Series [1] has as its system K562 human chronic myeloid leukaemia cells. Description: K562 assay (MTT cytotoxicity of released compounds). The format is cell-based. Particulars: drug incubation 1 hour or 96 hours (not specified which). The procedure: K562 human chronic myeloid leukaemia cells were maintained in RPM1 1640 medium supplemented with 10% fetal calf serum and 2 mM glutamine at 37° C. in a humidified atmosphere containing 5% CO2 and were incubated with a specified dose of drug for 1 hour or 96 hours at 37° C. in the dark. The incubation was terminated by centrifugation (5 min, 300 g) and the cells were washed once with drug-free medium. Following the appropriate drug treatment, the cells were transferred to 96-well microtiter plates (10^4 cells per well, 8 wells per sample). Plates were then kept in the dark at 37° C. in a humidified atmosphere containing 5% CO2. The assay is based on the ability of viable cells to reduce a yellow soluble tetrazolium salt, 3-(4,5-dimethylthiazol-2-yl)-2,5-diphenyl-2H-tetrazolium bromide (MTT, Aldrich-Sigma), to an insoluble purple formazan precipitate. Following incubation of the plates for 4 days (to allow control cells to increase in number by approximately 10 fold), 20 μL of MTT solution (5 mg/mL in phosphate-buffered saline) was added to each well and the plates further incubated for 5 h. The plates were then centrifuged for 5 min at 300 g and the bulk of the medium pipetted from the cell pellet leaving 10-20 μL per well. […] The optical density was then read at a wavelength of 550 nm on a Titertek Multiscan ELISA plate reader, and a dose-response curve was constructed. […]

The test system of series [2] is ZR-75-1 cell line, which expresses Tn-MUC1. Description: ZR-75-1 cell binding assay by flow cytometry (protocol 6). Particulars: flow cytometry, live cells. The procedure: Protocol 6: ZR-75-1 Cell Binding Assay by Flow Cytometry Materials • Wash solution: PBS 0.1% (w/v) sodium azide • Binding buffer: PBS, 10% normal goat serum, 0.1% (w/v) sodium azide) • 96 well U-well microplate Protocol
Exponentially growing cells are suspended by incubation with cell dissociation buffer enzyme-free, Hanks-based (Gibco 13150-016) following the manufacturer's instructions. A cell count/viability is done on a dilution of 10 ul cells+Trypan Blue, 10 ul, with a haemocytomer. The suspension is centrifuged and the cell pellet re-suspended in binding buffer at 3×10^6 per ml. If significant levels of aggregates are present in the cell count, the suspension is filtered to remove aggregates. The cell suspension is dispensed (50 ul/well) in 96 well U-bottom plates and cooled on ice for 10 minutes. Primary antibody (50 ul/well) diluted in binding buffer (typically 1 ug per ml or less) is added to each well and incubated at 4° C. for 1 hour. […] Cells are then re-suspended in PBS if reading immediately or fixed in 100 ul of paraformaldehyde (2% (w/v) in PBS) and analysed with by flow cytometer (Accuri C6), gating on live cells which have a lower Fixable Viability Dye MFI compared to dead cells.
IgG binding potency to Tn-MUC1 was measured as per protocol 4 and binding to the ZR-75-1 cell line, which expresses Tn-MUC1, was measured as per protocol 6.

The target of the next series is Tn-MUC1 (16TR-MUC1-Tn). As to the kind of experiment: Tn-MUC1 binding ELISA (protocol 4). Set-up: species or system human. Conditions: ELISA on 16TR-MUC1-Tn coated plate.
Chain of Tn-MUC1 (16TR-MUC1-Tn) (P15941 141-460 limits assumed): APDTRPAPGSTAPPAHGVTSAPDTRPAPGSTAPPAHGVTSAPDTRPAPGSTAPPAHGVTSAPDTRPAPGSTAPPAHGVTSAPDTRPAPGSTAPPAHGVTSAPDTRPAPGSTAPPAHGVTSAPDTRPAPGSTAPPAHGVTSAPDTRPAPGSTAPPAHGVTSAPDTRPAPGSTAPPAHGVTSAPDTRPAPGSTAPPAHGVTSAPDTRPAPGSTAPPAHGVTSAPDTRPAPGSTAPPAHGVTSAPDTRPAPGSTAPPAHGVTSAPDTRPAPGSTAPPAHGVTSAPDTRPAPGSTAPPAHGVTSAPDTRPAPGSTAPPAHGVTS
Series [3] is described as follows: Thermal denaturation assay (protocol 5). The format is physicochemical. Conditions: 50% inactivation temperature, 10 minutes heating, read by antigen-binding ELISA. (In an ELISA, binding on a coated surface is turned into a signal by an enzyme label.)

With `COc1cc2c(cc1OCCCOc1cc3c(cc1OC)C(=O)N1C=C(C)C[C@H]1C=N3)N=C[C@@H]1CC(C)=CN1C2=O` [Compound RelE], the IC50 (as a rule, the point on the concentration scale where inhibition reaches its midpoint) in series [1] came to 0.425 nM.

As to “Mouse 5E5: anti-Tn MUC 1 antibody comprising a VH domain according to SEQ ID NO. 1 and a VL domain according to SEQ ID NO. 30 [reference compound]”, the “ZR-75-1 cell binding EC50” value in series [2] came to 0.02834 µg/mL. Further, the “Tn-MUC1 binding EC50” value on Tn-MUC1 (16TR-MUC1-Tn) came to 0.0311 µg/mL. Moreover, the Tm – broadly, the temperature at the midpoint of the melting transition – in series [3] turned out to be 69.97 °C.
